Assay results taken from patent US5658888A, “Erythromycin derivatives” (Chugai Seiyaku Kabushiki Kaisha, priority 1992, dated 1997).
Read-outs that look alike come from different tables or passages of the source.

Columns and labels:
motilin receptor = biological target: T1, motilin receptor (Oryctolagus cuniculus, UniProt G1T803); experiment: motilin receptor binding test (displacement of 125I-labelled motilin); set-up: species or system rabbit; conditions: for activity in the hydrochloric acid solution compared with that in the DMSO solution: HCl pH 2.5, 120 min vs. DMSO
T1 construct: From a killed rabbit was removed the duodenum; from tissue; host or cells: rabbit duodenum homogenate (mucous membrane detached from the tunica muscularis, homogenized in 50 mM Tris pH 7.4)
Protocol: A motilin receptor binding test was conducted in the manner described hereunder [V. Bormans, et al., Regul. Peptides, 15, 143 (1986)].
(§1) From a killed rabbit was removed the duodenum, of which the mucous membrane was detached from the tunica muscularis and then homogenized in a 50 mM Tris solution (pH 7.4) to prepare a protein solution. Twenty-five pM of ^125 I-labelled motilin (purchased from Ohtsuka Assay Laboratory) and the protein solution were incubated at 25° C. for 120 minutes, after which the radioactivity of the protein was measured with a γ-ray counter, the difference between the radioactivity observed in the case of non-addition of motilin and that observed in the case of addition of an excess (1×10^-7 m) of motilin being defined as the specific binding capacity. The efficacies of the samples were expressed as IC50 (M), the concentration of each of the test drugs which reduces the specific binding capacity to 50%. The test drug was dissolved in a DMSO solution and added to the protein solution (the final DMSO concentration:1%). In experiments on investigation of the acid resistance, the test drug was dissolved in a hydrochloric acid solution (pH 2.5) which was then allowed to stand at room temperature for 120 minutes prior to its addition to the protein solution for the experiments.

[1] = test system: gastric antrum contractile motility; experiment: gastrointestinal motility of the conscious dog (force transducers, intragastric administration); format: in vivo, Beagle dog; conditions: for ED (MI=150): Canis lupus familiaris, po, conscious dog, interdigestive state, gastric antrum, read-out: MI150 (test drug dosage required to provide MI=150); for gastrointestinal contractile activity (in words): administered into the stomach
Protocol: The gastrointestinal motility of the conscious dog was measured according to the method described previously [Itoh, Zen, Journal of the Smooth Muscle Research, 13, 33 (1976)]. Beagle dogs weighing approximately 10 kg were anesthetized with an intravenously (i.v.) injection of pentobarbital sodium and the abdominal cavity was opened under aseptic conditions. Extraluminal force transducers were sutured onto the serosa of the gastric antrum (stomach), duodenum and jejunum in a manner to measure circular muscle contraction. In addition, a Silastic tube [French, size 6.5, Dow Corning, Midland, Mich., U.S.A.) was placed into the stomach for direct administration of test drugs into the stomach. The lead wires of these force transducers and a Silastic tube were led out of the abdominal cavity and through a skin incision made between the scapulae. After the operation, the dogs were housed in individual experimental cages and given commercial dog food once a day.
The gastrointestinal motor activity was recorded on a thermal pen-writing recorder (WR-3101, Graphtec, Tokyo, Japan) by connecting the lead wires of the transducers to the connecting cables from the amplifiers (UG-5, Nihon Kohden, Tokyo, Japan). About 2 weeks postoperatively, gastrointestinal contractile activity could be divided into two main patterns of activity, interdigestive and digestive state. In the interdigestive state, IMC (interdigestive migrating contractions) were seen to occur at regular intervals of 100-120 minutes in the gastric antrum and migrated through the duodenum and jejunum at a constant velocity. In all animals, feeding disrupted the regular IMC pattern. Experiments were carried out during interdigestive state. The test drug was directly injected into the stomach through a Silastic tube placed in the stomach in a volume of 3 ml, 15 min after the end of the IMC in the gastric antrum. Test drugs were dissolved in ethanol, and then diluted with 0.9% physiological saline.
To measure motility quantitatively, the signals from the gastric antrum were relayed to a personal computer (PC-9801, NEC, Tokyo, Japan) every 100 ms. The area surrounded by the contraction waves and the base line, i.e., the product of the amplitude (voltage) and the time in minutes during a certain fixed period, was calculated, expressed as percent of the area assuming that maximum contraction (amplitude) of the interdigestive migrating contraction lasted for 1 min, and used as the motor index (MI) [Inatomi et al., J. Pharmacol. Exp. Ther. 251, 707 (1989)]. The MI, which is calculated in this manner, of the naturally occurred in the gastric antrum is about 100-200. Therefore, the test drug dosage required to provide MI=150 was defined to be MI150 which was used as the index of the stimulating effects or the gastric motility of test drugs.

[2] = acid resistance / decomposition by acid; format: physicochemical; conditions: compared with EM-523 / publicly known erythromycin derivatives
Protocol: as §1

[3] = background statement; cited from earlier work

T1 sequence (G1T803 1-400): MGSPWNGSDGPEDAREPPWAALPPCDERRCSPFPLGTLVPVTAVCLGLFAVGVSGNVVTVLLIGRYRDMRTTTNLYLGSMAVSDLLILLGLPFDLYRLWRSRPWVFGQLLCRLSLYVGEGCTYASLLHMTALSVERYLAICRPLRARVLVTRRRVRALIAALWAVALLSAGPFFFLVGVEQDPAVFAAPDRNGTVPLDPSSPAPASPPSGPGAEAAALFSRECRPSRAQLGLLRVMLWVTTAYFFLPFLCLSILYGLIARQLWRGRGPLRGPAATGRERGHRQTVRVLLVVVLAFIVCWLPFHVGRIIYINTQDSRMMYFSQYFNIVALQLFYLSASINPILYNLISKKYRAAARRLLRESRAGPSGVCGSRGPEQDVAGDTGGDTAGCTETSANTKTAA

Compound | level of activity in DMSO solution (comparison of Compound 6 and EM-523) (motilin receptor) | activity in the hydrochloric acid solution compared with that in the DMSO solution (motilin receptor) | IC50 (motilin receptor; test drug in DMSO solution (final DMSO 1%), rabbit duodenum, 25 pM 125I-motilin, 25° C., 120 min, pH 7.4, read-out: IC50, Solution in DMSO) [nM] | IC50 (motilin receptor; test drug stood in hydrochloric acid solution (pH 2.5) at room temperature for 120 minutes before the assay, read-out: IC50, Solution in HCl) [nM] | ED (MI=150) ([1]; intragastric) [µg/kg] | gastrointestinal contractile activity (in words) [1] | contractile activity in the gastric antrum relative to EM-523 ([1]; intragastric, ratio of potency to EM-523) | decomposition by acid (in words) [2] | stability in the presence of an acid (in words) [3]
CC[C@H]1OC(=O)[C@H](C)[C@@H](O[C@H]2C[C@@](C)(OC)[C@@H](O)[C@H](C)O2)[C@H](C)[C@@H](O[C@@H]2O[C@H](C)C[C@H](N(C)C(C)C)[C@H]2O)[C@@]2(C)CC(C)=C(O2)[C@H](C)C(=O)[C@]1(C)OC [Compound 6, isopropyl-nor-12-O-methyl-11-oxo-8,9-anhydroerythromycin A 6,9-hemiketal] | the same level of activity | differing little from the value in the DMSO solution | 4.1 | 9.1 | 3.8 | increased gastrointestinal contractile activity | about 4 times | less decomposable with an acid than is EM-523 | 
CC[C@H]1OC(=O)[C@H](C)[C@@H](O[C@H]2C[C@@](C)(OC)[C@@H](O)[C@H](C)O2)[C@H](C)[C@@H](O[C@@H]2O[C@H](C)C[C@H](N(C)CC)[C@H]2O)[C@@]2(C)CC(C)=C(O2)[C@H](C)[C@@H](O)[C@]1(C)O [EM-523, reference compound] | the same level of activity | a decrease in the activity to one-100th that in the DMSO solution |  |  | 14.6 | increased gastrointestinal contractile activity |  |  | unstable in the presence of an acid
